88 compounds from PubChem BioAssay AID2305 (GlaxoSmithKline (GSK), 2010) can be followed below.

The test system of this experiment is P. falciparum 3D7 growth, pLDH absorbance. Description: P. falciparum 3D7 growth inhibition, dose response, strain 3D7 (AID 2305).

For `c1ccc(OCCOc2ccc(Nc3ccnc4cc5ccccc5cc34)cc2)cc1`, the IC50 (as a rule, the concentration that inhibits the measured activity by half) worked out at 250 nM.
For `CCCCCCN1CCN(Cc2cccc(NC(=O)c3cccc(OCC)c3)c2)CC1`, the half-maximal inhibitory concentration (IC50) was 1110 nM.
For the compound `CCOc1ccc(C(C)NC(=O)Cc2ccccc2F)cc1OCC` (stereo not drawn), the IC50 was determined as 840 nM.
Next, `CCC(C)NCC(O)(c1ccc(Cl)cc1)c1ccc(Cl)cc1` (stereo not drawn): 840 nM.
`Cc1[nH]cc(Br)c(=O)c1-c1ccc(Oc2ccc(OC(F)(F)F)cc2)cc1`: the IC50 amounted to 330 nM.
`Cc1cc(NC(=O)Nc2ccc(Cl)cc2F)c2ccccc2n1` came in with an IC50 of 550 nM.
On to `CS(=O)(=O)Nc1cccc(-c2cnc3[nH]cc(-c4ccc(C(=O)O)cc4)c3c2)c1`, for which the IC50 turned out to be 860 nM.
Compound `Cc1cccc2[nH]c(-c3ccc(-c4ccc(CNCCCNS(C)(=O)=O)cc4)s3)nc12` returned an IC50 of 1000 nM.
Regarding `N#Cc1ccc(N(CCCO)Cc2ccccc2C(F)(F)F)cc1C(F)(F)F`, the IC50 worked out at 980 nM.
For `Cc1ccc(NC(=O)NC2CCN(c3ccnc4ccccc34)C2)cc1` (stereo not drawn) the value was 710 nM; for `CCN(CC)CCCOc1ccc(Nc2nccc(-c3c(-c4cccc(NC(=O)c5c(F)cccc5F)c4)nn4ccccc34)n2)cc1F`, 410 nM.
For `CCCc1ccc2c(c1O)CCC(N(CCC)CCC)C2` (stereo not drawn) the value was 890 nM; for `Nc1cc(-c2ccc(Br)cc2O)nc2ccccc12`, 620 nM.
For the compound `CCN(c1cc(C)nc(Nc2ccc(Cl)cc2)n1)[C@H]1CCN(Cc2ccccc2)C1`, the half-inhibitory concentration (IC50) was found to be 860 nM.
Next, `OC(CNc1ccnc(Nc2ccccc2)n1)c1cccc(C(F)(F)F)c1` (stereo not drawn): 650 nM; `Cc1cc(N(C)C)nc(Nc2ccc(NS(=O)(=O)c3ccccc3)cc2)n1`: 1350 nM.
For `Clc1ccc2c(N3CCN(CCN4CCN(c5ccnc6cc(Cl)ccc56)CC4)CC3)ccnc2c1`, the half-maximal inhibitory concentration (IC50) was 130 nM.
As for `CN(C)CCCNCc1ccc(-c2ccc(C(F)(F)F)cc2)cc1`, the half-maximal inhibitory concentration (IC50) stood at 870 nM.
For `Cc1c(C)c2c(c(C)c1O)CC[C@](C)(C(=O)N1CCC(CCN3CCC(c4c[nH]c5ccccc45)CC3)CC1)O2` the value was 830 nM; for `OC(Cn1ccnc1)(c1ccc(Cl)cc1Cl)C1CCCCC1` (stereo not drawn), 980 nM.
Regarding `O=C(/C=C/c1ccc(Cl)c(Cl)c1)NCCCCCN1CCC(c2c[nH]c3c(-c4ccccc4)cccc23)CC1`, the IC50 came to 250 nM.
Next, `CCN(CC)C(=S)N=Nc1c(O)[nH]c2c(C)cccc12`: 860 nM; `CN1CC=C(c2c[nH]c3ccc(Oc4ccccc4)cc23)CC1`: 250 nM.
Next, `CC(=O)Nc1cccc(C(=O)Nc2ccc(-c3cccc(-c4nc5ccc(C(F)(F)F)cc5[nH]4)c3)cc2)c1`: 150 nM; `CCOc1cc2ncnc(Nc3ccc(OCc4c(Cl)cccc4Cl)c(OC)c3)c2cc1OCC`: 1050 nM.
Take `O=C(NC1CCC1)C1CCN(C(c2ccccc2)c2cc(F)cc(F)c2)CC1` (stereo not drawn): the IC50 came to 800 nM.
`Nc1nc(N)c2c(Oc3cc(Cl)c(Cl)c(Cl)c3)cccc2n1`: the IC50 turned out to be 800 nM.
`CC(C)[C@H](NC(=O)c1ccc(O)c(-c2cccc(C(F)(F)F)c2)c1)C(=O)NC1CCCc2ccccc21` (stereo partly drawn) came in with an IC50 of 930 nM.
The compound `Cc1cnc2cc3c(cc2c1N1CCN(C)CC1)NCC3` displayed an IC50 of 780 nM.
For `C=CCOC(=O)N1CCC(CNCc2cccc(-c3cccc(-c4nc5ccc(F)cc5[nH]4)c3)c2)C1` (stereo not drawn) the value was 210 nM; for `Cc1cc2c(cc1C(F)(F)F)N(C(=O)Nc1cnc(OCCN(C)C)c(C(F)(F)F)c1)CC2`, 970 nM; for `CN(C)C(C)(C)CN(Cc1ccc(-c2ccc(C(F)(F)F)cc2)cc1)C(=O)Cn1c(CCc2cccc(F)c2F)nc(=O)c2ccccc21`, 830 nM.
As to `Cc1nn(CCOC(=O)NC(NCC2COc3ccccc3O2)C(Cl)(Cl)Cl)cc1[N+](=O)[O-]` (stereo not drawn), the IC50 was found to be 920 nM.
In turn, `O=[N+]([O-])c1ccc2c(-c3ccccc3)c(-c3ccccc3)n(O)c2c1` had an IC50 of 990 nM.
`CCCc1cc(C(=O)N[C@@H](Cc2ccccc2)[C@H](O)CNC(C)(C)c2cccc(OC)c2)c(F)c(N2CCCC2=O)c1`: the IC50 stood at 100 nM.
`Cc1cc2nc(-c3ccc(OCC(=O)NCc4ccc(C(C)(C)C)cc4)cc3)[nH]c2cc1C` registered an IC50 of 1060 nM.
Consider `Cc1cccc(-c2ccc(NC(=O)Nc3ccc4nccc(N5CCN(C)CC5)c4c3)cc2C)n1`, for which the IC50 stood at 210 nM.
Turning to `O=c1cc(NCCCNCc2cccc(OC(F)(F)C(F)F)c2)[nH]c2ccccc12`, the IC50 turned out to be 1270 nM.
With `Cc1cc(N2CCCC2)nc(Nc2ccc(NC(=O)c3ccccc3)cc2)n1`, the IC50 amounted to 980 nM.
Next, `CC(=O)C1(c2ccccc2)CCN(CCC2(c3ccc(Cl)c(Cl)c3)CN(C(=O)C3CCCCC3)CCO2)CC1` (stereo not drawn): 310 nM; `COc1ccc(S(=O)(=O)NC2CCN(c3cc(C)nc(Nc4cccc(C#N)c4)n3)CC2)cc1`: 950 nM.
Consider `COc1ccc(Nc2nccc(N3CCC(NC(=O)C(C)c4ccc(Cl)cc4)CC3)n2)cc1` (stereo not drawn), for which the IC50 was determined as 930 nM.
For `CCOc1c(N2CCN(CCCCNC(=O)c3ccc(NC(=O)c4ccc(Cl)cc4)cc3)CC2)ccc2ccccc12`, the IC50 is 680 nM.
Next, `CCCN(CCC)CCCN(CCCN(CCC)CCC)c1cc(C)nc(Nc2ccc(Cl)cc2)n1`: 170 nM; `O=C(Nc1ccc(OC2CCN(Cc3ccc(F)cc3)C2)c(Cl)c1)c1cccs1` (stereo not drawn): 130 nM; `Cc1cccc2[nH]c(-c3ccc(-c4ccc(CNCC(C)C)cc4)cc3)nc12`: 410 nM.
`N#Cc1ccc(-c2ccc(C(=O)NC3CCN(CCN4CCC(c5cn(CCOC6CCCCO6)c6ccccc56)CC4)CC3)cc2)cc1` (stereo not drawn) displayed an IC50 of 600 nM.
Compound `COc1ccc2nccc([C@@H](O)CN3CCC(NC(=O)c4ccc5cc[nH]c5c4)CC3)c2c1` yielded an IC50 of 970 nM.
In the case of `CN1CC=C(c2c[nH]c3ccc(Br)cc23)CC1`, the IC50 amounted to 1190 nM.
Take `O=C(NCCN1CCCC1)c1cccc(-c2ccc(-c3nc4ccc(F)cc4[nH]3)cc2)c1`: the IC50 came to 720 nM.
As to `Cc1ccc(F)c(OCC2CCCN(c3ccc(C(=O)NC4CC4)cn3)C2)c1` (stereo not drawn), the IC50 came out at 770 nM.
In turn, `CN(C(=O)/C=C/c1ccccc1F)C1CCN(CCCCCNC(=O)/C=C/c2ccc(Cl)c(Cl)c2)CC1` returned an IC50 of 510 nM.
Compound `Cc1ccc(CN2CCN(CC(O)COc3ccc4c(c3)CCC4)CC2)cc1` (stereo not drawn) had an IC50 of 860 nM.
Next, `COc1ccc(-c2nc(NC(=O)CS(=O)(=O)c3ccccc3)sc2C)cc1`: 600 nM.
The compound `NCCNC(=O)c1ccc(-c2cnc3[nH]cc(-c4ccc(C(N)=O)cc4)c3c2)cc1` returned a half-maximal inhibitory concentration (IC50) of 170 nM.
Compound `COc1ccc(C=NNc2ccnc3cc(F)c(C)cc23)c2ccccc12` registered an IC50 of 770 nM.
In turn, `CC(=O)c1ccc(NC(=O)C2c3ccccc3C(=O)N(CC(C)C)C2c2cccs2)cc1` (stereo not drawn) showed an IC50 of 1320 nM.
In the case of `Cc1cccc2[nH]c(-c3ccc(-c4ccc(CN5CCC(C(N)=O)CC5)cc4)cc3)nc12`, the IC50 worked out at 930 nM.
As for `c1ccc(COc2ccc(C3CCCCC3)cc2)nc1`, the IC50 was 770 nM.
As to `CC(=O)Nc1ccc(OCCCCN(Cc2ccccc2C(F)(F)F)c2ccc(C#N)c(C(F)(F)F)c2)c(Cl)c1`, the IC50 is 980 nM.
Regarding `Cc1[nH]c2ccccc2c1C1=CCN(CCCCC2(C)C(=O)Nc3cccc(F)c32)CC1` (stereo not drawn), the half-inhibitory concentration (IC50) was 360 nM.
In turn, `CC(=NNC(N)=O)C1=C(O)C(c2ccccc2)N(C2CCCCC2)C1=O` (stereo not drawn) returned an IC50 of 30 nM.
On to `Cc1c(F)cc(C(=O)NC2CC2)cc1-c1ccc2c(cnn2S(=O)(=O)c2ccc(C#N)cc2)c1`, for which the IC50 worked out at 100 nM.
As to `CN1CCN(CCCN(Cc2csc(-c3ccc(CNCc4ccccc4)cc3)n2)S(=O)(=O)c2ccccc2)CC1`, the IC50 was 770 nM.
In turn, `CNCCc1c(O)ccc2ccccc12` had an IC50 of 800 nM.
Compound `O=C(Nc1cccc(-c2cc(-c3c(Cl)cccc3Cl)no2)c1)c1cncc(-c2cccs2)c1` displayed an IC50 of 950 nM.
Next, `CO/C(=C\C=C\c1cc2cc(Cl)c(Cl)cc2[nH]1)C(=O)NCCN1CCCCC1`: 1400 nM.
Take `COc1ccc(C2C(C(=O)Nc3ccc(C)cc3Br)c3ccccc3C(=O)N2C)cc1` (stereo not drawn): the IC50 amounted to 940 nM.
Regarding `O=C1OC(c2ccccc2)(c2ccccc2)CN1C1CCN(Cc2ccc(O)c(Cl)c2)C1` (stereo not drawn), the half-inhibitory concentration (IC50) amounted to 960 nM.
The compound `CN1CCC(C(=O)Nc2ccc(-c3ccc(-c4nc5ccccc5[nH]4)cc3)cc2)CC1` registered a 50% inhibitory concentration (IC50) of 980 nM.
Consider `O=C(Nc1ccc(-c2csc3nccn23)cc1)c1ccc(Cl)cc1`, for which the IC50 worked out at 580 nM.
For `COc1cc2ncnc(Nc3ccc(Br)c(Cl)c3)c2cc1OC`, the IC50 amounted to 720 nM.
For the compound `COc1ccc(-c2cncc3ccc(C(=O)NCc4ccncc4)nc23)cc1`, the IC50 is 740 nM.
The compound `CC(=O)Nc1ccc(CN2CCC(CNC(=O)c3cc(-c4cccc(C(F)(F)F)c4)cs3)C2)cc1` (stereo not drawn) showed an IC50 of 1100 nM.
Consider `CCn1ncc2c(NC3CCOCC3)c(CNC(=O)c3ccnn3C)c(C)nc21`, for which the IC50 came out at 530 nM.
For the compound `CC1CN(c2ccc(NC(=O)c3ccc(F)cc3)cc2)CCN1Cc1cccc(F)c1` (stereo not drawn), the IC50 turned out to be 1350 nM.
Next, `CC(C)CC(=O)N1CCNC[C@@H]1C(=O)NCc1ccc(Cl)c(Cl)c1`: 950 nM; `COc1ccc2nccc([C@@H](O)CN3CCC(NC(=O)c4ccc(-c5ccccc5)s4)CC3)c2c1`: 310 nM; `COc1nc(N)ncc1C(=O)NC1CN2CCC1CC2` (stereo not drawn): 240 nM.
In the case of `O=C(Cc1cnc[nH]1)Nc1cccc(-c2cccc(-c3nc4ccc(C(F)(F)F)cc4[nH]3)c2)c1`, the IC50 is 230 nM.
`COc1ccc2c(OC)ccc(CNCCCCCCNCc3ccc(OC)c4ccc(OC)cc34)c2c1` displayed an IC50 of 400 nM.
For `N#Cc1ccc2c(c1)CCN(CCC1CCC(NC(=O)c3cc4ccccc4[nH]3)CC1)CC2` (stereo not drawn) the value was 1010 nM; for `CCCc1c(C(=O)NC2CCC(CN3CCC(c4c[nH]c5ccccc45)CC3)CC2)cnn1-c1c(Cl)cc(Cl)cc1Cl` (stereo not drawn), 820 nM.
For the compound `O=C(Nc1cccnc1)c1ccc(-c2cc3ccncc3cc2OC2CCNCC2)s1`, the IC50 turned out to be 880 nM.
Take `COc1ccc(S(=O)(=O)N2CCCc3ccc(Br)cc32)cc1N1CCN(C(=O)C(Cl)(Cl)Cl)CC1`: the IC50 amounted to 810 nM.
Next, `COCc1nc(-c2ccccc2)nc(N2CCN(C(=O)NC(C)C)CC2)c1Cc1ccccc1F`: 1000 nM; `COc1cc(CNCCCNc2nc3ncccc3[nH]2)c2[nH]cc(Br)c2c1`: 1160 nM.
Next, `O=C(O)c1ccc(OCOCOc2ccc(C(=O)O)c(O)c2)cc1O`: 190 nM.
